Laboratory results taken from patent publication US9970938B2, “Use of BUBR1 as a biomarker of drug response to furazanobenzimidazoles” (Basilea Pharmaceutica AG, priority 2011, dated 2018).

What was measured:
Assay type in all cases: cell-based, human
LXFL529 = test: Colony outgrowth assay, patient-derived tumour xenograft cells; parameters: key: S: BAL27862-sensitive tumour cells have IC70 values in the low nanomolar range; R: BAL27862-resistant tumour cells are defined by IC70 values >600 nanomolar; conditions: Lung
Experimental: (§1) Single cell suspensions of patient-derived tumour xenografts (maintained in nude mice) were prepared. For colony outgrowth assays, cells were plated in soft agar in 24-well plates according to the assay introduced by Hamburger & Salmon (Primary bioassay of human tumour stem cells, Science, 1977, 197:461-463). 2.0E+04-6.0E+04 cells in 0.2 mL medium containing 0.4% agar were plated out on a bottom layer of 0.75% agar. Test compounds were applied in 0.2 mL culture medium. Every 24-well plate contained untreated controls and samples in triplicates. Cultures were incubated at 37° C. and 7.5% CO2 for 5-28 days. 24 hours prior to analysis, vital colonies were stained with a solution of metabolizable tetrazolium salt (Alley M C et al, Life Sci. 1982, 31:3071-3078) and were counted with an automatic image analysis system (Omnicon 3600, Biosys GmbH).
(§2) Relative drug effects were expressed by the ratio of the mean number of colonies in the treated wells and the control wells. IC70-values were determined by plotting compound concentrations versus relative colony counts.

GXF251 = test: as above; parameters: key: S: BAL27862-sensitive tumour cells have IC70 values in the low nanomolar range; R: BAL27862-resistant tumour cells are defined by IC70 values >600 nanomolar; conditions: Gastric
Experimental: as §1, §2

LXFA629 = test: as above; parameters: key: S: BAL27862-sensitive tumour cells have IC70 values in the low nanomolar range; R: BAL27862-resistant tumour cells are defined by IC70 values >600 nanomolar; conditions: Lung
Experimental: as §1, §2

GXF97 = test: as above; parameters: key: S: BAL27862-sensitive tumour cells have IC70 values in the low nanomolar range; R: BAL27862-resistant tumour cells are defined by IC70 values >600 nanomolar; conditions: Gastric
Experimental: as §1, §2

HeLa cells = test: BUBR1 siRNA pool, tumour cell phenotype and cell number by immunostaining; conditions: 50 nM BAL27862, 24 hours, 48 hours after siRNA
Experimental: In order to show BUBR1 is a biomarker of resistance, siRNA experiments were performed. For siRNA experiments to assess effects on tumour cell phenotype and numbers (FIG. 8), HeLa (ATCC reference CCL-2) cervical cancer cells were cultured at 37° C. and 5% CO2 in DMEM with 10% FCS (Invitrogen). 1000 HeLa cells per well were seeded into black 384 well multititer plates (BD Falcon). Cells were reversely transfected with 20 nM non-targeting control siRNA (ON-Target-plus non-targeting pool D001810, Dharmacon) or a mixture of four BUBR1 siRNAs (ON-Target-plus Smartpool L-004101, Dharmacon, see sequence information below) using Dharmafect1 (Dharmacon, Thermo) transfection reagent. 48 hours after cell seeding and siRNA transfection, one replicate pair of siRNA clones was treated with BAL27862 (50 nM, 0.1% DMSO) and another replicate pair with control solution (0.1% DMSO) for 24 hours. […] Based on the immunostaining, the morphology of treated cells was analysed using a multiparametric approach (BD Pathway 855 fluorescence microscope; 20× objective) with appropriate software. The number of cells per well was also calculated based on Hoe33342 staining of nuclei. […]

N#CCCNc1nonc1-c1nc2ccccc2n1CC(=O)c1ccc(N)cc1 [BAL27862, 3-(4-{1-[2-(4-Amino-phenyl)-2-oxo-ethyl]-1H-benzoimidazol-2-yl}-furazan-3-ylamino)-propionitrile]
Sensitive (S)/Resistant (R), by IC70 in colony outgrowth (LXFL529): S | Sensitive (S)/Resistant (R), by IC70 in colony outgrowth (GXF251): S | Sensitive (S)/Resistant (R), by IC70 in colony outgrowth (LXFA629): R (BAL27862-resistant tumour cells are defined by IC70 values >600 nanomolar) | Sensitive (S)/Resistant (R), by IC70 in colony outgrowth (GXF97): R (BAL27862-resistant tumour cells are defined by IC70 values >600 nanomolar) | HeLa cell number and fraction of cells with a normal phenotype after pooled BUBR1 siRNA (HeLa cells): BUBR1 was required for optimal effects
